Measured values reported in US9439432B2, “Phenylisoxazoline-based compound having herbicidal activity and use thereof” (MOGHU RESEARCH CENTER LTD, priority 2011, dated 2016).

Tests used:
Assay type in all cases: in vivo
[1] = test system: Digitaria sanguinalis; assay: Post-emergence treatment, herbicidal efficacy on large crabgrass; conditions: 4 weeks after spraying, scale 0 to 10
In short: (§1)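 Seed weeds and crops into 1:1 sandy loam/mixed bed soil; grow about two weeks to roughly 3 leaves; track-spray 125–1,000 g/ha at 300 L/ha from acetone/0.2% Tween 20; hold in greenhouse (25–30 °C day, 15–25 °C night); rate efficacy and crop injury 0–10 after four weeks.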

[2] = test system: Poa annua; assay: Pre-emergence treatment, herbicidal efficacy on annual bluegrass; conditions: 4 weeks after spraying, scale 0 to 10
In short: (§2)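 Test materials are dissolved in acetone and mixed with an equal amount of 0.2% (v/v) Tween 20 solution. This solution is sprayed pre-emergence at 500, 250, 125 or 62.5 g/ha onto freshly seeded, irrigated soil one day after watering. Effects are rated 0–10 four weeks later.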

[3] = test system: barnyardgrass, large crabgrass, and annual bluegrass; assay: Post-emergence treatment, grass weeds overall; conditions: 250 g/ha
Method: (§3) A rectangular plastic pot having a surface area of 300 cm^2 was filled with sandy loam soil and mixed bed soil which were mixed at a ratio of 1:1, and then, barnyardrass (Echinochloa crusgalli), large crabgrass (Digitaria sanguinalis), blackgrass (Alopecurus myosuroides), and annual bluegrass (Poa annua), which are grass weeds, were seeded thereto. In a pot that was prepared as described above, seeds of corn, soybean, cotton, wheat, and rice were seeded. The pots were irrigated, and one day after, chemicals were sprayed thereto. The spraying was performed by using a track sprayer (R&D Sprayer, USA) equipped with a Teejet 8002 (Spraying Systems Co., USA) nozzle, and a spraying amount was adjusted at 300 L/ha. A spraying solution was prepared by dissolving test materials or references in acetone and adding the same amount of 0.2%(v/v) tween 20 aqueous solution thereto. Application rates were 500, 250, 125, and 62.5 g/ha. The pots were placed in a greenhouse in which during day, the temperature was maintained at a temperature of 25 to 30° C., and during night, the temperature was maintained at a temperature of 15 to 25° C., and the pots were periodically irrigated. Four weeks after the spraying the test materials or References, effects and phytotoxicity of the respective weeds and crops were evaluated in a scale of 0 to 10 (0: no effects, 10: complete death), and results thereof are shown in Table 4 below.
Pots containing crops and weeds were prepared in the same manner as in Example 7, and then, in the second week in which crops and weeds entered into about 3 leaf stage, the test materials and the references were sprayed thereto in the same manner as described above. The rates were 1,000, 500, 250, and 125 g/ha. Four weeks after the spraying of the test materials or the references, herbicidal efficacy and phytotoxicity to the respective weeds and crops were evaluated in a scale of 0 to 10 (0: no effects, 10: complete death).

[4] = test system: Poa annua; assay: Post-emergence treatment, herbicidal efficacy on annual bluegrass; conditions: 4 weeks after spraying, scale 0 to 10
In short: as §1

[5] = test system: Corn; assay: Pre-emergence treatment, phytotoxicity to corn; conditions: 500 g/ha, 4 weeks after spraying, scale 0 to 10 (0: no effects, 10: complete death)
In short: as §2

[6] = test system: grass weeds including barnyardrass, large crabgrass, and annual bluegrass; assay: Pre-emergence treatment, grass weeds overall; conditions: relative to reference compounds
Method: as §3

[7] = test system: Rice; assay: Pre-emergence treatment, phytotoxicity to rice; conditions: 500 g/ha, 4 weeks after spraying, scale 0 to 10 (0: no effects, 10: complete death)
In short: as §2

[8] = test system: Cotton; assay: Pre-emergence treatment, phytotoxicity to cotton; conditions: 500 g/ha, 4 weeks after spraying, scale 0 to 10 (0: no effects, 10: complete death)
In short: as §2

[9] = test system: Soybean; assay: Pre-emergence treatment, phytotoxicity to soybean; conditions: 500 g/ha, 4 weeks after spraying, scale 0 to 10 (0: no effects, 10: complete death)
In short: as §2

[10] = test system: Soybean; assay: Post-emergence treatment, phytotoxicity to soybean; conditions: post-emergence (about 3 leaf stage), 1,000 g/ha, 4 weeks after spraying, scale 0 to 10 (0: no effects, 10: complete death)
In short: as §1

[11] = test system: Echinochloa crusgalli; assay: Post-emergence treatment, herbicidal efficacy on barnyardgrass; conditions: 4 weeks after spraying, scale 0 to 10
In short: as §1

[12] = test system: Alopecurus myosuroides; assay: Pre-emergence treatment, herbicidal efficacy on blackgrass; conditions: 4 weeks after spraying, scale 0 to 10
In short: as §2

[13] = test system: Alopecurus myosuroides; assay: Post-emergence treatment, herbicidal efficacy on blackgrass; conditions: 4 weeks after spraying, scale 0 to 10
In short: as §1

[14] = test system: Rice; assay: Post-emergence treatment, phytotoxicity to rice; conditions: post-emergence (about 3 leaf stage), 1,000 g/ha, 4 weeks after spraying, scale 0 to 10 (0: no effects, 10: complete death)
In short: as §1

[15] = test system: Wheat; assay: Pre-emergence treatment, phytotoxicity to wheat; conditions: 500 g/ha, 4 weeks after spraying, scale 0 to 10 (0: no effects, 10: complete death)
In short: as §2

[16] = test system: Corn; assay: Post-emergence treatment, phytotoxicity to corn; conditions: post-emergence (about 3 leaf stage), 1,000 g/ha, 4 weeks after spraying, scale 0 to 10 (0: no effects, 10: complete death)
In short: as §1

[17] = test system: Echinochloa crusgalli; assay: Pre-emergence treatment, herbicidal efficacy on barnyardgrass; conditions: 4 weeks after spraying
In short: as §2

[18] = test system: Wheat; assay: Post-emergence treatment, phytotoxicity to wheat; conditions: post-emergence (about 3 leaf stage), 1,000 g/ha, 4 weeks after spraying, scale 0 to 10 (0: no effects, 10: complete death)
In short: as §1

[19] = test system: Cotton; assay: Post-emergence treatment, phytotoxicity to cotton; conditions: post-emergence (about 3 leaf stage), 1,000 g/ha, 4 weeks after spraying, scale 0 to 10 (0: no effects, 10: complete death)
In short: as §1

[20] = test system: Digitaria sanguinalis; assay: Pre-emergence treatment, herbicidal efficacy on large crabgrass; conditions: 4 weeks after spraying, scale 0 to 10
In short: as §2

[21] = 500 g/ha, scale 0 to 10 (0: no effects, 10: complete death)

SMILES: CC1(COCc2c(F)cccc2F)CC(c2ccccc2F)=NO1 (stereo not shown) [Compound 4, 5-((2,6-difluorobenzyloxy)methyl)-3-(2-fluorophenyl)-5-methyl-4,5-dihydroisoxazole]
- Herbicidal efficacy, Digitaria sanguinalis ([1]; post-emergence, 125 g/ha): 6
- Herbicidal efficacy, Digitaria sanguinalis ([1]; post-emergence, 250 g/ha): 6
- Herbicidal efficacy, Digitaria sanguinalis ([1]; post-emergence, 500 g/ha): 10
- Herbicidal efficacy, Digitaria sanguinalis ([1]; post-emergence, 1,000 g/ha): 10
- Herbicidal efficacy, Poa annua ([2]; 62.5 g/ha): 9
- Herbicidal efficacy, Poa annua ([2]; 125 g/ha): 10
- Herbicidal efficacy, Poa annua ([2]; 250 g/ha): 10
- Herbicidal efficacy, Poa annua ([2]; 500 g/ha): 10
- suppression of barnyardgrass, large crabgrass, and annual bluegrass [3]: greatly suppressed
- Herbicidal efficacy, Poa annua ([4]; post-emergence, 125 g/ha): 6
- Herbicidal efficacy, Poa annua ([4]; post-emergence, 250 g/ha): 7
- Herbicidal efficacy, Poa annua ([4]; post-emergence, 500 g/ha): 10
- Herbicidal efficacy, Poa annua ([4]; post-emergence, 1,000 g/ha): 10
- Phytotoxicity, Corn [5]: 4
- efficacy stronger than the References [6]: about 4 times
- Phytotoxicity, Rice [7]: 0
- Phytotoxicity, Cotton [8]: 1
- Phytotoxicity, Soybean [9]: 0
- Phytotoxicity, Soybean [10]: 1
- Herbicidal efficacy, Echinochloa crusgalli ([11]; post-emergence, 125 g/ha): 5
- Herbicidal efficacy, Echinochloa crusgalli ([11]; post-emergence, 250 g/ha): 8
- Herbicidal efficacy, Echinochloa crusgalli ([11]; post-emergence, 500 g/ha): 10
- Herbicidal efficacy, Echinochloa crusgalli ([11]; post-emergence, 1,000 g/ha): 10
- Herbicidal efficacy, Alopecurus myosuroides ([12]; 62.5 g/ha): 3
- Herbicidal efficacy, Alopecurus myosuroides ([12]; 125 g/ha): 4
- Herbicidal efficacy, Alopecurus myosuroides ([12]; 250 g/ha): 8
- Herbicidal efficacy, Alopecurus myosuroides ([12]; 500 g/ha): 10
- Herbicidal efficacy, Alopecurus myosuroides ([13]; post-emergence, 125 g/ha): 0
- Herbicidal efficacy, Alopecurus myosuroides ([13]; post-emergence, 250 g/ha): 4
- Herbicidal efficacy, Alopecurus myosuroides ([13]; post-emergence, 500 g/ha): 9
- Herbicidal efficacy, Alopecurus myosuroides ([13]; post-emergence, 1,000 g/ha): 10
- Phytotoxicity, Rice [14]: 2
- Phytotoxicity, Wheat [15]: 0
- Phytotoxicity, Corn [16]: 4
- Herbicidal efficacy, Echinochloa crusgalli ([17]; 62.5 g/ha, scale 0 to 10): 7
- Herbicidal efficacy, Echinochloa crusgalli ([17]; 125 g/ha, scale 0 to 10): 10
- Herbicidal efficacy, Echinochloa crusgalli ([17]; 250 g/ha, scale 0 to 10): 10
- Herbicidal efficacy, Echinochloa crusgalli [17, 21]: 10
- Phytotoxicity, Wheat [18]: 1
- Phytotoxicity, Cotton [19]: 0
- Herbicidal efficacy, Digitaria sanguinalis ([20]; 62.5 g/ha): 10
- Herbicidal efficacy, Digitaria sanguinalis ([20]; 125 g/ha): 10
- Herbicidal efficacy, Digitaria sanguinalis ([20]; 250 g/ha): 10
- Herbicidal efficacy, Digitaria sanguinalis ([20]; 500 g/ha): 10

SMILES: Cc1ccccc1C1=NOC(C)(COCc2c(F)cccc2F)C1 (stereo not shown) [Compound 1, 5-((2,6-difluorobenzyloxy)methyl)-5-methyl-3-o-tolyl-4,5-dihydroisoxazole]
- Herbicidal efficacy, Digitaria sanguinalis ([1]; post-emergence, 125 g/ha): 6
- Herbicidal efficacy, Digitaria sanguinalis ([1]; post-emergence, 250 g/ha): 9
- Herbicidal efficacy, Digitaria sanguinalis ([1]; post-emergence, 500 g/ha): 10
- Herbicidal efficacy, Digitaria sanguinalis ([1]; post-emergence, 1,000 g/ha): 10
- Herbicidal efficacy, Poa annua ([2]; 62.5 g/ha): 9
- Herbicidal efficacy, Poa annua ([2]; 125 g/ha): 10
- Herbicidal efficacy, Poa annua ([2]; 250 g/ha): 10
- Herbicidal efficacy, Poa annua ([2]; 500 g/ha): 10
- suppression of barnyardgrass, large crabgrass, and annual bluegrass [3]: greatly suppressed
- Herbicidal efficacy, Poa annua ([4]; post-emergence, 125 g/ha): 5
- Herbicidal efficacy, Poa annua ([4]; post-emergence, 250 g/ha): 8
- Herbicidal efficacy, Poa annua ([4]; post-emergence, 500 g/ha): 9
- Herbicidal efficacy, Poa annua ([4]; post-emergence, 1,000 g/ha): 10
- Phytotoxicity, Corn [5]: 1
- efficacy stronger than the References [6]: about 8 times
- Phytotoxicity, Rice [7]: 0
- Phytotoxicity, Cotton [8]: 0
- Phytotoxicity, Soybean [9]: 0
- Phytotoxicity, Soybean [10]: 2
- Herbicidal efficacy, Echinochloa crusgalli ([11]; post-emergence, 125 g/ha): 7
- Herbicidal efficacy, Echinochloa crusgalli ([11]; post-emergence, 250 g/ha): 9
- Herbicidal efficacy, Echinochloa crusgalli ([11]; post-emergence, 500 g/ha): 10
- Herbicidal efficacy, Echinochloa crusgalli ([11]; post-emergence, 1,000 g/ha): 10
- Herbicidal efficacy, Alopecurus myosuroides ([12]; 62.5 g/ha): 4
- Herbicidal efficacy, Alopecurus myosuroides ([12]; 125 g/ha): 6
- Herbicidal efficacy, Alopecurus myosuroides ([12]; 250 g/ha): 8
- Herbicidal efficacy, Alopecurus myosuroides ([12]; 500 g/ha): 9
- Herbicidal efficacy, Alopecurus myosuroides ([13]; post-emergence, 125 g/ha): 2
- Herbicidal efficacy, Alopecurus myosuroides ([13]; post-emergence, 250 g/ha): 8
- Herbicidal efficacy, Alopecurus myosuroides ([13]; post-emergence, 500 g/ha): 7
- Herbicidal efficacy, Alopecurus myosuroides ([13]; post-emergence, 1,000 g/ha): 9
- Phytotoxicity, Rice [14]: 0
- Phytotoxicity, Wheat [15]: 0
- Phytotoxicity, Corn [16]: 2
- Herbicidal efficacy, Echinochloa crusgalli ([17]; 62.5 g/ha, scale 0 to 10): 10
- Herbicidal efficacy, Echinochloa crusgalli ([17]; 125 g/ha, scale 0 to 10): 10
- Herbicidal efficacy, Echinochloa crusgalli ([17]; 250 g/ha, scale 0 to 10): 10
- Herbicidal efficacy, Echinochloa crusgalli [17, 21]: 10
- Phytotoxicity, Wheat [18]: 0
- Phytotoxicity, Cotton [19]: 2
- Herbicidal efficacy, Digitaria sanguinalis ([20]; 62.5 g/ha): 9
- Herbicidal efficacy, Digitaria sanguinalis ([20]; 125 g/ha): 10
- Herbicidal efficacy, Digitaria sanguinalis ([20]; 250 g/ha): 10
- Herbicidal efficacy, Digitaria sanguinalis ([20]; 500 g/ha): 10
